Measurements taken from the supplement of paper PMC8882468.
Values joined by “and” are separate entries in the source; they are usually repeats but may differ in a detail not shown here. Identical values can stand only once.

Key:
Test in all cases: CTG-3D luminescence at 96 h relative to day-0 seeding control (ratio to day 0); higher = more growth / less cytotoxicity; PDxO 3D drug screen (set 2), 96 h, CTG-3D normalised to day-0 seeding control.
[1] = test system: HCI-001 (organoid from a triple-negative breast cancer xenograft)
[2] = test system: HCI-005.E2 (organoid from a breast cancer xenograft with a HER2-positive history)
[3] = test system: HCI-010 (organoid from a breast cancer xenograft)
[4] = test system: HCI-016 (organoid from a triple-negative breast cancer xenograft)
[5] = test system: HCI-019 (organoid from a triple-negative breast cancer xenograft)
[6] = test system: MDA-MB-231

CO[C@H]1C[C@@H]2CC[C@@H](C)[C@@](O)(O2)C(=O)C(=O)N2CCCC[C@H]2C(=O)O[C@H]([C@H](C)C[C@@H]2CC[C@@H](O)[C@H](OC)C2)CC(=O)[C@H](C)/C=C(\C)[C@@H](O)[C@@H](OC)C(=O)[C@H](C)C[C@H](C)/C=C/C=C/C=C/1C [rapamycin]
CTG-3D luminescence at 96 h
Conditions	12.5 pM	0.00025 µM	0.005 µM	0.1 µM	1 µM	10 µM	100 µM	625 fM
[1], days in culture: 365	2.01	1.51	1.8	1.8	1.28	1.67	0.0179	1.4
[1], days in culture: 397	1.46	1.71	1.53	1.84	1.22	1.87	0.017	1.1
[1], days in culture: 401	1.07	1.45	1.1	1.26	0.98	1.23	0.00642	0.961
[3], days in culture: 79	1.09	1.02	1.11	1.13	0.996	0.98	0.00731	1.13
[3], days in culture: 86	1.91	1.75	1.61	1.37	1.45	1.46	0.0226	2.35
[3], days in culture: 102	0.91	0.799	0.831	0.806	0.875	0.636	0.00488	0.865
[3], days in culture: 164	1.39	1.27	1.02	0.996	1.17	0.924	0.0097	1.26
[4], days in culture: 305	1.79	1.77	1.74	4.51	1.66	1.4	0.0174	3.16
[4], days in culture: 327	0.432	0.896	2.06	1.99	0.951	1.2	0.023	0.782
[4], days in culture: 341	1.45	1.24	1.81	1.73	1.34	1.81	0.00758	1.9
[4], days in culture: 397	1.84	1.69	1.26	1.35	1.52	1.39	0.0166	1.94
[5], days in culture: 173	1.07	0.905	0.844	1.93	1.36	1.43	0.0117	1.08
[5], days in culture: 194	1.66	1.04	1.1	0.588	1.28	1.54	0.0107	2.69
[5], days in culture: 215	1.12	0.5	0.486	1.15	0.713	0.457	0.00468	1.43

CTG-3D luminescence at 96 h
Conditions	12.5 pM	0.00025 µM	0.005 µM	0.1 µM	1 µM	10 µM	100 µM	625 fM
[2]	1.21	1.28	1.46	1.72	1.73	1.49	0.0167	1.52
[6]	4.67	4.8	4.88	4.66	4.92	4.59	0.0454	–

O=C(c1cc(Cc2n[nH]c(=O)c3ccccc23)ccc1F)N1CCN(C(=O)C2CC2)CC1 [olaparib]
CTG-3D luminescence at 96 h
Conditions	12.5 pM	0.00025 µM	0.005 µM	0.1 µM	1 µM	10 µM	100 µM	625 fM
[1], days in culture: 365	2.29	1.96	2.13	2.28	2.05	2.04	1.96	1.74
[1], days in culture: 397	1.71	2.02	2	1.8	2.31	2.16	1.24	1.26
[1], days in culture: 401	1.69	1.42	1.54	1.68	1.23	1.73	1.26	1.62
[3], days in culture: 79	2.04	1.79	2.08	2.11	1.98	1.43	0.445	2.19
[3], days in culture: 86	2.3	2.5	2.59	2.35	2.34	1.68	0.309	2.43
[3], days in culture: 102	1.21	1.27	1.15	1.36	1.26	0.657	0.0517	1.12
[3], days in culture: 164	1.72	1.56	1.64	1.57	1.54	0.88	0.272	1.61
[4], days in culture: 305	2.92	2.24	2.09	3.71	1.96	1.22	0.878	3.99
[4], days in culture: 327	1.25	0.765	1.45	1.31	1.34	1.59	1.23	1.74
[4], days in culture: 341	1.92	1.78	2.18	2.46	1.62	1.79	0.982	2.44
[4], days in culture: 397	1.5	2.56	1.17	1.75	2.07	1.74	0.249	2.79
[5], days in culture: 173	2.78	1.9	2.2	2.31	0.982	0.711	1.32	1.96
[5], days in culture: 194	0.984	1.95	2.68	1.65	1.48	0.946	0.789	2.41
[5], days in culture: 215	2	2.06	1.04	1.59	1.06	0.36	0.254	1.33

CTG-3D luminescence at 96 h
Conditions	12.5 pM	0.00025 µM	0.005 µM	0.1 µM	1 µM	10 µM	100 µM	625 fM
[2]	1.62	2.3	2.07	2.39	2.1	1.27	0.485	2.24
[6]	5.57 and 5.09	5.62 and 5.21	5.57 and 5.41	5.38 and 5.09	5.15 and 5.11	4.31 and 4.38	3.27 and 2.33	5.41 and 5.09

CC(=O)c1c(C)c2cnc(Nc3ccc(N4CCNCC4)cn3)nc2n(C2CCCC2)c1=O [palbociclib]
CTG-3D luminescence at 96 h
Conditions	12.5 pM	0.00025 µM	0.005 µM	0.1 µM	1 µM	10 µM	100 µM	625 fM
[1], days in culture: 365	2.73	2.25	2.7	2.64	2.4	1.89	1.62	2.11
[1], days in culture: 397	1.74	2.12	2.31	2.47	2.46	2	1.24	1.26
[1], days in culture: 401	1.54	2.13	1.58	1.85	1.33	1.58	0.962	1.63
[3], days in culture: 79	1.68	1.69	1.79	1.9	1.71	1.47	0.772	1.88
[3], days in culture: 86	2.36	2.42	2.72	2.52	2.49	2.34	1.26	2.21
[3], days in culture: 102	1.09	1.35	1.2	1.65	1.56	1.54	0.787	1.15
[3], days in culture: 164	1.31	1.57	1.74	1.67	1.73	1.25	0.562	1.37
[4], days in culture: 305	2.74	2.8	2.81	3.01	2.9	1.83	2.12	3.73
[4], days in culture: 327	0.926	1.04	1.84	1.67	1.15	1.59	0.478	1.3
[4], days in culture: 341	2.28	1.75	1.74	2.25	1.67	1.9	0.71	2.48
[4], days in culture: 397	2	2.56	1.48	2.7	2.38	1.99	0.831	2.9
[5], days in culture: 173	2.68	2.28	1.24	2.55	2.78	1.39	1.9	2.01
[5], days in culture: 194	3.12	1.02	3.29	2.76	2.08	1.97	1.02	1.43
[5], days in culture: 215	1.93	1.31	2.06	1.48	1.83	1.35	1.38	1.73

CTG-3D luminescence at 96 h
Conditions	12.5 pM	0.00025 µM	0.005 µM	0.1 µM	1 µM	10 µM	100 µM	625 fM
[2]	1.84	2.56	2.41	3.06	2.51	2.16	0.934	2.38
[6]	5.2	5.24	5.27	5.18	5.16	4.35	1.02	5.32

Cc1c(CN2CCN(C(=O)[C@H](C)O)CC2)sc2c(N3CCOCC3)nc(-c3cnc(N)nc3)nc12 [apitolisib]
CTG-3D luminescence at 96 h
Conditions	12.5 pM	0.00025 µM	0.005 µM	0.1 µM	1 µM	10 µM	100 µM	625 fM
[1], days in culture: 365	2.58	2.24	2.1	1.76	0.879	0.659	0.623	1.4
[1], days in culture: 397	1.85	1.88	1.62	1.89	0.725	0.643	0.29	1.38
[1], days in culture: 401	1.46	1.75	1.41	1.57	0.609	0.676	0.517	1.65
[3], days in culture: 79	1.94	1.83	1.96	1.68	0.503	0.107	0.0163	2.13
[3], days in culture: 86	2.03	2.34	2.49	1.94	0.554	0.242	0.088	2.27
[3], days in culture: 102	1.17	1.35	1.21	0.954	0.286	0.0291	0.0044	0.944
[3], days in culture: 164	1.71	1.39	1.57	1.27	0.641	0.265	0.0363	1.33
[4], days in culture: 305	2.28	2.68	3.05	3.53	0.981	0.764	0.885	4.57
[4], days in culture: 327	1.06	1.19	1.2	1.18	0.573	0.82	0.546	1.62
[4], days in culture: 341	2.23	1.71	1.7	1.65	0.831	0.768	0.618	2.56
[4], days in culture: 397	1.26	1.89	1.41	1.48	0.778	0.916	0.378	1.87
[5], days in culture: 173	2.46	1.25	0.933	2.29	0.88	0.36	0.336	1.93
[5], days in culture: 194	1.95	1.96	2.18	0.828	0.744	0.462	0.305	1.85
[5], days in culture: 215	0.992	1.33	1.51	0.699	0.362	0.15	0.168	1.4

CTG-3D luminescence at 96 h
Conditions	12.5 pM	0.00025 µM	0.005 µM	0.1 µM	1 µM	10 µM	100 µM	625 fM
[2]	1.87	2.22	2.35	1.75	0.429	0.481	0.444	2.21
[6]	5.6 and 5.03	5.7 and 4.98	5.72 and 5.32	5.01 and 4.5	2.91 and 2.98	2.31 and 2.38	0.873 and 0.875	5.53 and 5.09

C[C@@H](Nc1cc(F)cc(F)c1)c1cc(C(=O)N(C)C)cc2c(=O)cc(N3CCOCC3)oc12 [AZD-8186]
CTG-3D luminescence at 96 h
Conditions	12.5 pM	0.00025 µM	0.005 µM	0.1 µM	1 µM	10 µM	100 µM	625 fM
[1], days in culture: 365	2.63	2.2	2.38	2.83	1.84	1.13	1.08	1.53
[1], days in culture: 397	1.79	2.6	2.23	2.14	1.81	1.69	0.737	1.6
[1], days in culture: 401	1.64	1.69	1.59	1.76	1.28	1.24	0.924	1.69
[3], days in culture: 79	1.88	1.85	1.94	1.98	1.58	1.1	0.138	2.14
[3], days in culture: 86	2.26	2.36	2.34	2.1	1.99	1.67	0.321	2.16
[3], days in culture: 102	1.18	0.973	1.18	1.19	1.19	0.856	0.0314	1.26
[3], days in culture: 164	1.6	1.49	1.64	1.37	1.4	1.02	0.0763	1.52
[4], days in culture: 305	3.52	4.53	2.53	4.16	1.53	1.97	1.51	4.97
[4], days in culture: 327	1.3	1.35	1.53	2.67	0.902	1.31	0.672	1.61
[4], days in culture: 341	2.01	1.59	2.07	1.7	1.81	2.04	0.88	2.55
[4], days in culture: 397	2.34	2.9	1.49	1.76	2.14	1.87	0.71	2.46
[5], days in culture: 173	3.42	1.4	1.36	2.98	2.28	0.532	0.37	1.05
[5], days in culture: 194	1.94	1.36	1.46	2.1	1.87	1.3	0.367	1.03
[5], days in culture: 215	1.9	1.48	0.854	1.62	0.82	1.39	0.374	1.8

CTG-3D luminescence at 96 h
Conditions	12.5 pM	0.00025 µM	0.005 µM	0.1 µM	1 µM	10 µM	100 µM	625 fM
[2]	1.82	2.18	2.26	2.54	2.24	1.51	0.592	1.97
[6]	5.61 and 5.06	5.71 and 5.14	5.56 and 5.16	5.39 and 4.98	5.11 and 4.76	4.68 and 4.38	2.77 and 2.47	5.47 and 5.15
